Assay results from US20230085307A1, “PYRIDAZINONE COMPOUND AND HERBICIDE” (NISSAN CHEMICAL CORPORATION, priority 2019, published 2023).

What was measured:
lambsquarters [1] = assay: Test Example 5: herbicidal effect by foliage application, plastic box (Table 20, symbol O); format: in vivo, lambsquarters (Chenopodium album); settings: 320 g/ha
Summary of the method: (§1)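 Post-emergence foliar test in sterilized diluvial soil. Compound applied as water-diluted emulsion at a predetermined rate to 14-day-old plants; evaluation at three weeks.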

redroot pigweed [2] = assay: Test Example 4: herbicidal effect by soil treatment (Table 19, symbol N); format: in vivo, redroot pigweed (Amaranthus retroflexus); settings: amount of applied herbicide 320 g/ha
Summary of the method: (§2)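 Scoring uses the grading scale of an earlier test, three weeks post-application. Treatment consists of spraying a diluted emulsion formulation across the surface of sterilized diluvial soil in which seeds are buried near 1.5 cm deep; boxes are kept in a greenhouse between 25° C. and 30° C.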

Chinese sprangletop = assay: Test Example 3: herbicidal effect by foliage application, Wagner pot (Table 18, symbol D); format: in vivo, chinese sprangletop (Leptochloa chinensis); settings: 320 g/ha
Summary of the method: (§3)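 Plants were sown in alluvial soil held under 0.1–0.5 cm standing water and grown 14 days in a greenhouse at 25–30 °C. An emulsifiable formulation, water-diluted to the set dose, was then sprayed onto the foliage, and effects were scored three weeks later using previously defined criteria.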

blackgrass [3] = assay: Test Example 4: herbicidal effect by soil treatment (Table 19, symbol J); format: in vivo, blackgrass (Alopecurus myosuroides); settings: amount of applied herbicide 320 g/ha
Summary of the method: as §2

blackgrass [4] = assay: Test Example 5: herbicidal effect by foliage application, plastic box (Table 20, symbol J); format: in vivo, blackgrass (Alopecurus myosuroides); settings: 320 g/ha
Summary of the method: as §1

lambsquarters [5] = assay: Test Example 4: herbicidal effect by soil treatment (Table 19, symbol O); format: in vivo, lambsquarters (Chenopodium album); settings: amount of applied herbicide 320 g/ha
Summary of the method: as §2

rice flat sedge = assay: Test Example 3: herbicidal effect by foliage application, Wagner pot (Table 18, symbol E); format: in vivo, rice flat sedge (Cyperus iria); settings: 320 g/ha
Summary of the method: as §3

persian speedwell = assay: Test Example 5: herbicidal effect by foliage application, plastic box (Table 20, symbol R); format: in vivo, Persian speedwell (Veronica persica); settings: 320 g/ha
Summary of the method: as §1

velvetleaf [6] = assay: Test Example 5: herbicidal effect by foliage application, plastic box (Table 20, symbol M); format: in vivo, velvetleaf (Abutilon theophrasti); settings: 320 g/ha
Summary of the method: as §1

velvetleaf [7] = assay: Test Example 4: herbicidal effect by soil treatment (Table 19, symbol M); format: in vivo, velvetleaf (Abutilon theophrasti); settings: amount of applied herbicide 320 g/ha
Summary of the method: as §2

Italian ryegrass [8] = assay: Test Example 4: herbicidal effect by soil treatment (Table 19, symbol K); format: in vivo, Italian ryegrass (Lolium multiflorum); settings: amount of applied herbicide 320 g/ha
Source text: (§4) [Test Example 4] Herbicidal Effect Test by Soil Treatment
(§5) Sterilized diluvial soil was placed in a plastic box having a length of 21 cm, a width of 13 cm, and a depth of 7 cm. The seeds of each of southern crabgrass, green foxtail, barnyard grass, wild oat, blackgrass, Italian ryegrass, windgrass, velvetleaf, redroot pigweed, lambsquarters, chickweed, false cleavers, persian speedwell, corn, soybean, rice, wheat, beet, and rapeseed were sowed in a spot-like manner and covered with the soil having a thickness of about 1.5 cm. Subsequently, the emulsion agent of the compound of the present invention prepared according to Formulation Example 2 was diluted with water so as to achieve a predetermined herbicide amount, and the diluted emulsion agent was uniformly applied to the surface of the soil with a small-sized spray. The plastic box was placed in a greenhouse at 25° C. to 30° C. for growth of the plants. Three weeks after the herbicide application, the effect of the herbicide on each plant was evaluated according to the criteria of Test Example 1.

southern crabgrass [9] = assay: Test Example 5: herbicidal effect by foliage application, plastic box (Table 20, symbol F); format: in vivo, southern crabgrass (Digitaria ciliaris); settings: 320 g/ha
Summary of the method: as §1

wild oat [10] = assay: Test Example 5: herbicidal effect by foliage application, plastic box (Table 20, symbol I); format: in vivo, wild oat (Avena fatua); settings: 320 g/ha
Summary of the method: as §1

barnyard grass [11] = assay: Test Example 5: herbicidal effect by foliage application, plastic box (Table 20, symbol H); format: in vivo, barnyard grass (Echinochloa crus-galli); settings: 320 g/ha
Summary of the method: as §1

chickweed [12] = assay: Test Example 5: herbicidal effect by foliage application, plastic box (Table 20, symbol P); format: in vivo, common chickweed (Stellaria media); settings: 320 g/ha
Summary of the method: as §1

windgrass [13] = assay: Test Example 4: herbicidal effect by soil treatment (Table 19, symbol L); format: in vivo, windgrass (Apera spica-venti); settings: amount of applied herbicide 320 g/ha
Source text: as §4, §5

Italian ryegrass [14] = assay: Test Example 5: herbicidal effect by foliage application, plastic box (Table 20, symbol K); format: in vivo, Italian ryegrass (Lolium multiflorum); settings: 320 g/ha
Summary of the method: as §1

windgrass [15] = assay: Test Example 5: herbicidal effect by foliage application, plastic box (Table 20, symbol L); format: in vivo, windgrass (Apera spica-venti); settings: 320 g/ha
Summary of the method: as §1

redroot pigweed [16] = assay: Test Example 5: herbicidal effect by foliage application, plastic box (Table 20, symbol N); format: in vivo, redroot pigweed (Amaranthus retroflexus); settings: 320 g/ha
Summary of the method: as §1

barnyard grass [17] = assay: Test Example 3: herbicidal effect by foliage application, Wagner pot (Table 18, symbol H); format: in vivo, barnyard grass (Echinochloa crus-galli); settings: 320 g/ha
Summary of the method: as §3

wild oat [18] = assay: Test Example 4: herbicidal effect by soil treatment (Table 19, symbol I); format: in vivo, wild oat (Avena fatua); settings: amount of applied herbicide 320 g/ha
Source text: as §4, §5

barnyard grass [19] = assay: Test Example 4: herbicidal effect by soil treatment (Table 19, symbol H); format: in vivo, barnyard grass (Echinochloa crus-galli); settings: amount of applied herbicide 320 g/ha
Summary of the method: as §2

chickweed [20] = assay: Test Example 4: herbicidal effect by soil treatment (Table 19, symbol P); format: in vivo, common chickweed (Stellaria media); settings: amount of applied herbicide 320 g/ha
Source text: as §4, §5

green foxtail [21] = assay: Test Example 4: herbicidal effect by soil treatment (Table 19, symbol G); format: in vivo, green foxtail (Setaria viridis); settings: amount of applied herbicide 320 g/ha
Summary of the method: as §2

green foxtail [22] = assay: Test Example 5: herbicidal effect by foliage application, plastic box (Table 20, symbol G); format: in vivo, green foxtail (Setaria viridis); settings: 320 g/ha
Summary of the method: as §1

southern crabgrass [23] = assay: Test Example 4: herbicidal effect by soil treatment (Table 19, symbol F); format: in vivo, southern crabgrass (Digitaria ciliaris); settings: amount of applied herbicide 320 g/ha
Summary of the method: as §2

[24] = foliage application, three weeks after application
[25] = foliage application after 14-day growth, evaluated three weeks after application

SMILES: COc1ccccc1-c1sc2cc(OCCS(C)(=O)=O)ccc2c1-c1c(O)c(C)nn(C)c1=O [3-127]
- O: lambsquarters, herbicidal effect grade (lambsquarters [1]; [24]): 4 (Herbicidal rate of 70% or more and less than 90%)
- N: redroot pigweed, herbicidal effect grade (redroot pigweed [2]): 0 (Herbicidal rate of 5% or less (almost no effect))
- herbicidal effect on Chinese sprangletop (D) (Chinese sprangletop): 3 (Herbicidal rate of 40% or more and less than 70%)
- J: blackgrass, herbicidal effect grade (blackgrass [3]): 3 (Herbicidal rate of 40% or more and less than 70%)
- J: blackgrass, herbicidal effect grade (blackgrass [4]; [24]): 5 (Herbicidal rate of 90% or more (almost completely withered))
- O: lambsquarters, herbicidal effect grade (lambsquarters [5]): 0 (Herbicidal rate of 5% or less (almost no effect))
- herbicidal effect on rice flat sedge (E) (rice flat sedge): 5 (Herbicidal rate of 90% or more (almost completely withered))
- R: persian speedwell, herbicidal effect grade (persian speedwell; [24]): 5 (Herbicidal rate of 90% or more (almost completely withered))
- M: velvetleaf, herbicidal effect grade (velvetleaf [6]; [24]): 5 (Herbicidal rate of 90% or more (almost completely withered))
- M: velvetleaf, herbicidal effect grade (velvetleaf [7]): 0 (Herbicidal rate of 5% or less (almost no effect))
- K: Italian ryegrass, herbicidal effect grade (Italian ryegrass [8]): 4 (Herbicidal rate of 70% or more and less than 90%)
- F: southern crabgrass, herbicidal effect grade (southern crabgrass [9]; [24]): 5 (Herbicidal rate of 90% or more (almost completely withered))
- I: wild oat, herbicidal effect grade (wild oat [10]; [24]): 4 (Herbicidal rate of 70% or more and less than 90%)
- H: barnyard grass, herbicidal effect grade (barnyard grass [11]; [24]): 3 (Herbicidal rate of 40% or more and less than 70%)
- P: chickweed, herbicidal effect grade (chickweed [12]; [24]): 5 (Herbicidal rate of 90% or more (almost completely withered))
- L: windgrass, herbicidal effect grade (windgrass [13]): 5 (Herbicidal rate of 90% or more (almost completely withered))
- K: Italian ryegrass, herbicidal effect grade (Italian ryegrass [14]; [24]): 4 (Herbicidal rate of 70% or more and less than 90%)
- L: windgrass, herbicidal effect grade (windgrass [15]; [24]): 5 (Herbicidal rate of 90% or more (almost completely withered))
- N: redroot pigweed, herbicidal effect grade (redroot pigweed [16]; [24]): 5 (Herbicidal rate of 90% or more (almost completely withered))
- herbicidal effect on barnyard grass (H) (barnyard grass [17]): 4 (Herbicidal rate of 70% or more and less than 90%)
- I: wild oat, herbicidal effect grade (wild oat [18]): 0 (Herbicidal rate of 5% or less (almost no effect))
- H: barnyard grass, herbicidal effect grade (barnyard grass [19]): 0 (Herbicidal rate of 5% or less (almost no effect))
- P: chickweed, herbicidal effect grade (chickweed [20]): 1 (Herbicidal rate of 5% or more and less than 20%)
- G: green foxtail, herbicidal effect grade (green foxtail [21]): 0 (Herbicidal rate of 5% or less (almost no effect))
- G: green foxtail, herbicidal effect grade (green foxtail [22]; [24]): 5 (Herbicidal rate of 90% or more (almost completely withered))
- F: southern crabgrass, herbicidal effect grade (southern crabgrass [23]): 0 (Herbicidal rate of 5% or less (almost no effect))

SMILES: CCOc1ccccc1-c1sc2c(Cl)cccc2c1-c1c(O)c(C)nn(C)c1=O [4-025]
- herbicidal effect on O: lambsquarters (evaluation grade 0-5) (lambsquarters [1]; [25]): 3 (Herbicidal rate of 40% or more and less than 70%)
- Herbicidal effect by soil treatment, N: redroot pigweed (redroot pigweed [2]): 3 (Herbicidal rate of 40% or more and less than 70%)
- herbicidal effect on Chinese sprangletop (D) (Chinese sprangletop): 3 (Herbicidal rate of 40% or more and less than 70%)
- Herbicidal effect by soil treatment, J: blackgrass (blackgrass [3]): 1 (Herbicidal rate of 5% or more and less than 20%)
- herbicidal effect on J: blackgrass (evaluation grade 0-5) (blackgrass [4]; [25]): 4 (Herbicidal rate of 70% or more and less than 90%)
- Herbicidal effect by soil treatment, O: lambsquarters (lambsquarters [5]): 1 (Herbicidal rate of 5% or more and less than 20%)
- herbicidal effect on rice flat sedge (E) (rice flat sedge): 5 (Herbicidal rate of 90% or more (almost completely withered))
- herbicidal effect on R: persian speedwell (evaluation grade 0-5) (persian speedwell; [25]): 5 (Herbicidal rate of 90% or more (almost completely withered))
- herbicidal effect on M: velvetleaf (evaluation grade 0-5) (velvetleaf [6]; [25]): 4 (Herbicidal rate of 70% or more and less than 90%)
- Herbicidal effect by soil treatment, M: velvetleaf (velvetleaf [7]): 2 (Herbicidal rate of 20% or more and less than 40%)
- Herbicidal effect by soil treatment, K: Italian ryegrass (Italian ryegrass [8]): 0 (Herbicidal rate of 5% or less (almost no effect))
- herbicidal effect on F: southern crabgrass (evaluation grade 0-5) (southern crabgrass [9]; [25]): 3 (Herbicidal rate of 40% or more and less than 70%)
- herbicidal effect on I: wild oat (evaluation grade 0-5) (wild oat [10]; [25]): 0 (Herbicidal rate of 5% or less (almost no effect))
- herbicidal effect on H: barnyard grass (evaluation grade 0-5) (barnyard grass [11]; [25]): 5 (Herbicidal rate of 90% or more (almost completely withered))
- herbicidal effect on P: chickweed (evaluation grade 0-5) (chickweed [12]; [25]): 4 (Herbicidal rate of 70% or more and less than 90%)
- Herbicidal effect by soil treatment, L: windgrass (windgrass [13]): 0 (Herbicidal rate of 5% or less (almost no effect))
- herbicidal effect on K: Italian ryegrass (evaluation grade 0-5) (Italian ryegrass [14]; [25]): 3 (Herbicidal rate of 40% or more and less than 70%)
- herbicidal effect on L: windgrass (evaluation grade 0-5) (windgrass [15]; [25]): 5 (Herbicidal rate of 90% or more (almost completely withered))
- herbicidal effect on N: redroot pigweed (evaluation grade 0-5) (redroot pigweed [16]; [25]): 4 (Herbicidal rate of 70% or more and less than 90%)
- herbicidal effect on barnyard grass (H) (barnyard grass [17]): 5 (Herbicidal rate of 90% or more (almost completely withered))
- Herbicidal effect by soil treatment, I: wild oat (wild oat [18]): 0 (Herbicidal rate of 5% or less (almost no effect))
- Herbicidal effect by soil treatment, H: barnyard grass (barnyard grass [19]): 3 (Herbicidal rate of 40% or more and less than 70%)
- Herbicidal effect by soil treatment, P: chickweed (chickweed [20]): 0 (Herbicidal rate of 5% or less (almost no effect))
- Herbicidal effect by soil treatment, G: green foxtail (green foxtail [21]): 4 (Herbicidal rate of 70% or more and less than 90%)
- herbicidal effect on G: green foxtail (evaluation grade 0-5) (green foxtail [22]; [25]): 5 (Herbicidal rate of 90% or more (almost completely withered))
- Herbicidal effect by soil treatment, F: southern crabgrass (southern crabgrass [23]): 2 (Herbicidal rate of 20% or more and less than 40%)
